Measurements taken from US20090269753A1 (priority 2007, published 2009).

Columns and labels:
fasl = fasl real-time RT-PCR in SRC-1-/- osteoclasts transfected with SRC-1 WT or P1272S; format: cell-based, mice; settings: estradiol 10 nM or 40H-Tamoxifen 1 μM, 24 h
[1] = Hip and lumbar BMD by DXA at baseline and after 12 months of tamoxifen treatment; format: in vivo, women
Description: Patients were enrolled after they had completed all primary surgery, radiation, and adjuvant chemotherapy.

[2] = SRC-1-/- osteoclasts with P1272S SRC-1
[3] = SRC-1-/- osteoclasts with transfected Flag-SRC-1 WT vs vector alone

| Compound | Induction of fasl (fasl; [2]) | Induction of fasl (fasl; [3]) | Lumbar BMD decrease ([1]; P1272S carriers (n=4), p=0.04 vs women without the SNP) [%] | hip BMD decrease ([1]; SNP carriers (n=4), p=0.08 vs WT group) [%] | hip BMD decrease ([1]; WT group (n=102)) [%] | Lumbar BMD decrease ([1]; women without the SNP (n=107)) [%] |
| --- | --- | --- | --- | --- | --- | --- |
| C[C@]12CC[C@@H]3c4ccc(O)cc4CC[C@H]3[C@@H]1CC[C@@H]2O [Estrogen, estradiol] | failed to upregulate fasl | detectable |  |  |  |  |
| CC/C(=C(\c1ccccc1)c1ccc(OCCN(C)C)cc1)c1ccccc1 [Tamoxifen, tamoxifen] | failed to upregulate fasl | detectable | 6.4 | 4.3 | 0.6 | 1.3 |
